What all share (format): cell-based
Data set [1] has as its target T1, OR10A3 (Homo sapiens, UniProt P58181).
T1 construct: Class II OR library members with modified C-terminal domains; expressed in transfected cells
T1 sequence (P58181 with tags, fused parts or gaps): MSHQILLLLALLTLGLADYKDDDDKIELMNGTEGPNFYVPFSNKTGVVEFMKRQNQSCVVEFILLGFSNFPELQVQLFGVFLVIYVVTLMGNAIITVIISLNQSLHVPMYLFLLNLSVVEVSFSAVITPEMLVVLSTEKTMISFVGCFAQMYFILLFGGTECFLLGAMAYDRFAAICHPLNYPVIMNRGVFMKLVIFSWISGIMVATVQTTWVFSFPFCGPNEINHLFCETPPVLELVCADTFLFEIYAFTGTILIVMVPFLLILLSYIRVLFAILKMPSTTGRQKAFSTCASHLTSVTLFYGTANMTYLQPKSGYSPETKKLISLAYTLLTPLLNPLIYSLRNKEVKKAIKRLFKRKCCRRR
In words: Dose-response test of single lactones on OR10A3 (luciferase). The protocol:
(§1) In a subsequent de-convultion experiment, the single ingredients were tested in a dose-response test on all the identified OR. […] Thus, OR2AP1 and OR2J2 are particularly strongly activated by the long-chain dodecalactone gamma, while OR10A3 is very sensitive to several longer chain lactones. […] Among the five OR, OR10A3 is the most sensitive.

Data set [2] addresses T2, OR8K3 (Homo sapiens, UniProt Q8NH51, D295E/L122R/Y298D).
T2 construct: Improved functional expression of modified OR-genes containing the truncated, optimized C-terminus; expressed in transfected cells; host or cells: HEK293T stably expressing human RTP1S(V227I) and RTP2(L220R)
T2 sequence (Q8NH51 with tags, fused parts or gaps L122R/D295E/Y298D): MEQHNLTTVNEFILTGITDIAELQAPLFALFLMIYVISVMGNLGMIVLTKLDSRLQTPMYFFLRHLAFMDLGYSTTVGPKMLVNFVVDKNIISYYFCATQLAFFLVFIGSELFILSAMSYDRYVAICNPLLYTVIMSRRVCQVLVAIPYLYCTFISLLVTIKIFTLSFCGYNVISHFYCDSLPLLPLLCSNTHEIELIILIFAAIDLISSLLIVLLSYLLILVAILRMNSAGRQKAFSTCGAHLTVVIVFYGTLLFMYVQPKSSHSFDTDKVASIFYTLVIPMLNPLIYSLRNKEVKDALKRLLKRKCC
Nature of the data set: cell-based.

Data set [3] has as its target T3, OR10H5 (Homo sapiens, UniProt Q8NGA6).
T3 construct: Improved functional expression of modified OR-genes containing the truncated, optimized C-terminus; expressed in transfected cells; host or cells: HEK293T stably expressing human RTP1S(V227I) and RTP2(L220R)
T3 sequence (Q8NGA6 with tags, fused parts or gaps): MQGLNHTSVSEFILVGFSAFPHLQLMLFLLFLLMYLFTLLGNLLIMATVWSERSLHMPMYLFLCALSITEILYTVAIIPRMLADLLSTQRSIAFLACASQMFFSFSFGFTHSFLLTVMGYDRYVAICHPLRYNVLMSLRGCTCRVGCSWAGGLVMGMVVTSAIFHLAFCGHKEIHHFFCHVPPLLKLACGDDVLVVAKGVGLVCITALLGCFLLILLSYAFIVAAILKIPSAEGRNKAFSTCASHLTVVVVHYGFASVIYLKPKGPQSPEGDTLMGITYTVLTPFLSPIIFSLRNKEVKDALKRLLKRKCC
In words: CRE-luciferase assay, HEK293T cells expressing OR10H5 (wild-type / modified C-terminus). The text has this: All tested receptors of Table 1 gave improved functional expression when the wild-type C-terminal domain was replaced with SEQ ID NO: 86. This functional expression was further improved when SEQ ID NO:86 was replaced with SEQ ID NO: 221 as shown for OR7C1 in Table 8 and for OR5B12 in Table 9. This additive improvement was further tested with OR10H5 (Table 18) and OR7A17 (Table 19). […] The full DNA sequences encoding the modified receptors are SEQ ID NO: 684 for OR10H5 and SEQ ID NO: 611 for OR7A17.

Data set [4] concerns the target T4, OR10A6(A117V, V140G, L287P) (Homo sapiens, UniProt Q8NH74, A117V/L287P/V140G).
T4 construct: expressed in transfected cells; transient transfection of pcDNA3.1(+) OR plasmid
T4 sequence (Q8NH74 with tags, fused parts or gaps A117V/V140G/L287P limits assumed): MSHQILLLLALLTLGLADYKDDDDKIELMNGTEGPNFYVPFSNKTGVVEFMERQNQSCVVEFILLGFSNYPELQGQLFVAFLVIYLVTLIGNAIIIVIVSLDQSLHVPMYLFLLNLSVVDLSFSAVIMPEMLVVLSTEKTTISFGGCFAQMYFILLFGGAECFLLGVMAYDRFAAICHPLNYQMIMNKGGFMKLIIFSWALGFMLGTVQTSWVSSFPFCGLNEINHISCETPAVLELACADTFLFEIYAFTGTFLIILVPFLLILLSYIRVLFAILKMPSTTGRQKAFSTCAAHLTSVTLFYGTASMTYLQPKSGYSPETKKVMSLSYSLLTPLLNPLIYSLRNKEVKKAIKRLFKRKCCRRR
In words: Dose-response test of single lactones on OR10A6(A117V, V140G, L287P). The protocol:
as §1

In data set [5] the target is T5, OR2J2 (Homo sapiens, UniProt O76002, A146V/A218T/A302I/G300K/H297E/H74Y).
T5 construct: expressed in transfected cells; transient transfection of pcDNA3.1(+) OR plasmid
T5 sequence (O76002 with tags, fused parts or gaps H74Y/A146V/A218T/H297E/G300K/A302I limits assumed): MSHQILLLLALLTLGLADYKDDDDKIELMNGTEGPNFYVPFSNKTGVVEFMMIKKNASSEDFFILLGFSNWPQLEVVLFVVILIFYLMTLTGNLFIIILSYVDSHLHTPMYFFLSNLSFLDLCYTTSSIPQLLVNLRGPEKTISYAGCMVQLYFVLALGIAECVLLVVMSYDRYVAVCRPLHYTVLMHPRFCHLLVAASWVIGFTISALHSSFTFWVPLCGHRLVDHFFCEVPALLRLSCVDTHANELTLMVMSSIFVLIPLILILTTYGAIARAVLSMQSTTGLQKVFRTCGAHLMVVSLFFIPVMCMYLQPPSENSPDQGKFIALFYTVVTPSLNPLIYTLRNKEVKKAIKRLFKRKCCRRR
In words: Dose-response test of single lactones on OR2J2. As for the experimental part: as §1

Data set [6] has as its target T6, OR10J1(M51I, I92M) (Homo sapiens, UniProt P30954, I103M/M62I).
T6 construct: expressed in transfected cells; transient transfection of pcDNA3.1(+) OR plasmid
T6 sequence (P30954 with tags, fused parts or gaps M62I/I103M): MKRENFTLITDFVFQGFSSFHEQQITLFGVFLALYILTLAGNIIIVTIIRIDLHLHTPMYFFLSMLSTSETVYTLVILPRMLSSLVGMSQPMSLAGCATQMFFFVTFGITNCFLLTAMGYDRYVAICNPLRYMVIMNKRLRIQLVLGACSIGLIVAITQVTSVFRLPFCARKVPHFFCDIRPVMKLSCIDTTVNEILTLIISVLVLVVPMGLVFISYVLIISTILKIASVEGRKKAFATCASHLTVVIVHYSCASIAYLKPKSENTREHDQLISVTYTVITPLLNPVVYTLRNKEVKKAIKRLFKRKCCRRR
In words: Dose-response test of single lactones on OR10J1(M51I, I92M). As for the experimental part:
as §1

Data set [7] addresses T7, OR1N2 (Homo sapiens, UniProt Q8NGR9, T287M/V230G/W23R).
T7 construct: Improved functional expression of modified OR-genes containing the truncated, optimized C-terminus; expressed in transfected cells; host or cells: HEK293T stably expressing human RTP1S(V227I) and RTP2(L220R)
T7 sequence (Q8NGR9 with tags, fused parts or gaps W23R/V230G/T287M): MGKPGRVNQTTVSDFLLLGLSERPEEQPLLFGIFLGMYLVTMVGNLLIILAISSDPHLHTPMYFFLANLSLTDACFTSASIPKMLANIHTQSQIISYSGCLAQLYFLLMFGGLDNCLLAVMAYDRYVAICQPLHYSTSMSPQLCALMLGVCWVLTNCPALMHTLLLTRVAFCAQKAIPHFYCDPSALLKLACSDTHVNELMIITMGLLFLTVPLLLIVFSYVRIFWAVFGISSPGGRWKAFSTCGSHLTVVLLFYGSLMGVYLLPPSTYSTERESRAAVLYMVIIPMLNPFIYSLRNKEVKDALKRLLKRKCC
In words: CRE-luciferase assay, HEK293T cells expressing OR1N2 (wild-type / modified C-terminus).

The structures appear in SMILES notation. Marks after values point to notes of the source that are not given here.

Turning to `CCCC1CCC(=O)O1` (centres unmarked) [Heptalactone gamma], the “EC10, concentration for 10-fold OR activation” value in data set [1] is 298.04 μM.

Regarding `CC(C)[C@@H]1CC[C@@H](C)CC1=O` [menthone], the “activation of the modified receptor variant” value in data set [2] (OR8K3, SEQ ID NO: 86) is “also activating the receptor, although with a lower potency”. The “inactive up to concentration” value in data set [2] (wild-type OR8K3) was above 316 µM.

For the compound `Cc1ccc2c(c1)OCC(=O)CO2` [Calone], in data set [3], the Comments on efficacy was 3-fold lower. Besides, the “Detection threshold; concentration for 2-fold induction” value worked out at 24.3 µM in data set [3] (changed C-term. SEQ ID NO: 86) and 60.1 µM in data set [3] (wild-type). Besides, the Fold-improvement threshold in data set [3] (changed C-term. vs wild-type) was determined as 2.5. Also, the Fold-improvement potency in data set [3] (changed C-term. vs wild-type, higher EC50 due to much higher efficacy of optimized C-terminus) is on record as 0.7 *.

On to `CCCCCC1CCC(=O)O1` (centres unmarked) [Nonalactone gamma], for which the “EC10, concentration for 10-fold OR activation” value in data set [1] worked out at 2.83 μM. Moreover, the results for the “EC2 (concentration for 2-fold luciferase induction)” value in data set [4], in data set [5] and in data set [6] were 11.34 µM, 12.85 µM and 11.14 µM, respectively.

`O=C1CCCCCCCC=CCCCCCCO1` [Ambrettolide] had a Comments on efficacy in data set [7] of 1.5. For the same compound, the “Detection threshold; concentration for 2-fold induction” value in data set [7] (changed C-term. SEQ ID NO: 86) stood at 0.26 µM. In data set [7] (changed C-term. vs wild-type), the Fold-improvement potency was 1.5 and the Fold-improvement threshold was 5.2. Moreover, in data set [7] (wild-type), the “Detection threshold; concentration for 2-fold induction” value amounted to 1.33 µM.
